{"source": "patent US20110224256A1", "about": "“T[…] THE TREATMENT OF PSYCHIATRIC DISORDERS” (priority 2008, published 2011)", "key": {"[1]": {"tested_on": "D3 receptor mRNA", "assay": "D3 receptor mRNA by Q-PCR after juvenile drug exposure", "format": "in vivo, Sprague-Dawley rats", "settings": "for reduction in D3 receptor mRNA: MPH 2 mg/kg i.p. twice daily P20-P35, HCl"}, "[2]": {"tested_on": "Sprague-Dawley male rats", "assay": "Place conditioning to 10 mg/kg cocaine at P60 after juvenile drug exposure", "format": "in vivo", "settings": "juvenile exposure P20-P35: MPH 2 mg/kg, ±7-OHDPAT 0.3 mg/kg, or MPH 2 mg/kg + Naf 0.05 mg/kg; tested at P60; HCl", "description": "Juvenile Sprague-Dawley male rats were treated with MPH (2 mg/kg, i.p. twice daily), ±7-OHDPAT (0.3 mg/kg, i.p. twice daily), Naf (0.05, 0.5 and 5 mg/kg; i.p. twice daily) or VEH (i.p. twice daily) between the ages of P20 and P35 (Andersen et al., Nat. Neurosci., 5:13-14 (2002)). The MPH dose was selected on the basis of previous studies (see Andersen et al., Nat. Neurosci., 5:13-14 (2002); Bolanos et al., Biol. Psychiatry, 54:1317-1329 (2003); and Mague et al., Biol. Psychiatry, 57:120-125 (2005)), unpublished observations that we find similar behavioral effects if MPH is given i.p. or orally at this dose, and evidence that it approximates a clinically relevant dose in humans based on plasma levels (see Wargin et al., J. Pharmacol. Exp. Ther., 226:382-386 (1983); and Kuczenski, R. & Segal, D. S. J. Neurosci., 22:7264-7271 (2002)). Clinically therapeutic doses of MPH yield plasma levels between 8 and 40 ng/mL (Swanson et al., Behay. Brain Res., 130:73-78 (2002); Teicher et al., Ann. N. Y. Acad. Sci., 1071:313-323 (2006)), with 0.5 mg/kg i.p., achieving plasma levels of 36 ng/mL within 5 min in rats (Berridge et al., Biol. Psychiatry, 60:1111-1120 (2006)). Doses for juvenile exposure to ±7-OHDPAT are based on Neisewander et al., Neuropsychopharmacology, 29:1479-1487 (2004), and cortical microinjections of 10 µg/side were derived from Boulay et al. Prog. Neuropsychopharmacol. Biol. Psychiatry, 24:39-49 (2000). Naf doses below 1 mg/kg have negligible D2 receptor occupancy (Sautel et al., J. Pharmacol. Exp. Ther., 275:1239-1246 (1995)) and are behaviorally effective (Richtand et al., Brain Res., 867:239-242 (2000)). Subjects were weighed daily at 09.00 h and injected with their assigned drug; the second injection was administered 4 h later at 13.00 h. This regimen is designed to match the twice-daily dosing used by children, taking into account the higher metabolic rates of rats (Wargin et al., J. Pharmacol. Exp. Ther., 226:382-386 (1983)). After the second drug administration on P35, the rats received no further treatments until behavioral testing at P60.\nRats treated between P20 and P35 with either Naf (0, 0.05, 0.5 or 5.0 mg/kg; n=7-9), ±7-OHDPAT (0.3 mg/kg; n=9), MPH (2 mg/kg; n=9), or a combination of 2 mg/kg MPH and 0.05 mg/kg Naf (MPH/Naf; n=8) were tested at P60 for place conditioning to 10 mg/kg cocaine. According to standard laboratory methods (Andersen et al., Nat. Neurosci., 5:13-14 (2002); Carlezon, Methods Mol. Med., 84:243-249 (2003)), unbiased place conditioning chambers consisted of two large (24×18×33) side compartments separated by a small (12×18×33 cm) middle compartment. Screening was conducted for 30 min on Day 1. Rats were placed in the middle compartment and allowed to freely explore the apparatus. […] Two days of conditioning (with two sessions per day) occurred on Days 2 and 3 for 60 min (Andersen et al., Nat. Neurosci., 5:13-14 (2002); Carlezon, Methods Mol. Med., 84:243-249 (2003)). During the conditioning sessions, rats received a 1 mL/kg i.p. injection of VEH in the morning (09.00 h) and confined to one side. The rats were then returned to the home cage. Four hours later, rats received 10 mg/kg cocaine and confined to the other side. Sides differed in floor texture, wall colors and lighting, and assignments were counterbalanced. On Day 4, rats were permitted to freely explore the entire apparatus for 30 min in a drug-free state."}, "[3]": {"tested_on": "BDNF", "assay": "BDNF mRNA and protein in MPH-exposed subjects after cocaine challenge", "format": "in vivo, rats", "settings": "in response to cocaine challenge, preliminary, data not shown", "text": "Changes in D3 expression and function may signal a sensitive period of development, when drug imprinting is likely to occur (Andersen, Trends Pharmacol. Sci., 26:237-243 (2005)). Drug-induced perturbations before the completion of dopamine receptor development may prevent these developmental rearrangements."}, "[4]": {"tested_on": "dopamine receptors D1, D2 long, D4 and D5 mRNA", "assay": "D1, D2 long, D4 and D5 receptor mRNA by Q-PCR after juvenile MPH exposure", "format": "in vivo, Sprague-Dawley rats", "settings": "MPFCx, 25 days after cessation of MPH, P>0.1"}}, "note": "“And” between values parts separate entries of the source, which are not always exact repeats. Equal entries are not always repeated. “Also recorded” adds a separate entry of the source. Structures can show the parent of a compound that is named as a salt.", "data": [{"smiles": "COC(=O)C(c1ccccc1)C1CCCCN1", "note": "(stereo not drawn) [MPH, d,l-Methylphenidate HCl]", "values": [{"measurement": "reduction in D3 receptor mRNA", "setting": "[1]; MPFCx, assessed at P40", "value": "28.9±8.3% and 28.9%"}, {"measurement": "D3 mRNA levels in the place-conditioned animals", "setting": "[1]; MPFCx, corrected by GAPDH, juvenile MPH 2 mg/kg or MPH + 0.05 mg/kg Naf, F3,20=8.76, P<0.001", "value": "significantly changed"}, {"measurement": "reduction in D3 receptor mRNA", "setting": "[1]; MPFCx, relative to VEH controls, 25 days post-exposure (P60)", "value": "23.8±6.7% and 23.8%"}, {"measurement": "D3 mRNA change", "setting": "[1]; accumbens or striatum, MPH-exposed, P>0.5", "value": "did not change"}, {"measurement": "place conditioning to 10 mg/kg cocaine associated environment (pre- vs. post-conditioning)", "setting": "[2]", "value": "Place aversion; also recorded: aversion to the cocaine-associated environment"}, {"measurement": "BDNF mRNA", "setting": "[3]", "value": "reduced"}, {"measurement": "BDNF protein levels", "setting": "[3]", "value": "modestly, but significantly, lower"}, {"measurement": "changes in other dopamine receptor subtype mRNA (D1, D2 long, D4, D5)", "setting": "[4]", "value": "No other significant changes"}]}]}
